The assay deals with RhoBAST (RNA, aptamer) GGAACCUCCGCGAAAGCGGUGAAGGAGAGGCGCAAGGUUAACCGCCUCAGGUUCC
Description: fluorescence titration, fixed dye, aptamer varied. To be noted: 125 mM KCl, 1 mM MgCl2; 20 mM HEPES pH 7.4, 0.05% Tween 20, 25 °C, 10 nM dye.

We go through one compound from PMC10313827 (2023).

For orientation: KD means the concentration at which binding is half-saturated.

Molecules are shown by their SMILES.

Regarding `CN(C)S(=O)(=O)N1C(=O)c2ccccc2C12c1ccc(N3CCC3)cc1Oc1cc(N3CCC3)ccc12`, the KD is 100 ± 8 nM.
